Assay results taken from patent publication US20190169134A1, “NOVEL CLASS OF QUINOLONE HETEROCYCLIC AROMATIC MOLECULES FOR CANCER TREATMENT” (RenoTarget Therapeutics, Inc., priority 2016, published 2019).

Key:
HCC827 P cells = test: Western blot of EGFR downstream signaling; assay type: cell-based, human; details: 24 hrs
Experimental: The cells were washed with PBS, harvested and cellular proteins were extracted. […] Protein or phosphor-protein levels of pEGFRTyr1068, pEGFRTry845, pAktSer473, pStat3Tyr705, MEK1/2, pMEK1/2, p27, and pp70 S6 kinase 2 were determined by Western blot using specific antibodies. β-actin was used as loading control.
HCC827 P or other indicated cells at exponential growth phase were treated with indicated compounds for 24 hrs. The cells were washed with PBS, harvested and cellular proteins were extracted.

EGFR(L861Q) = target: T1, EGFR(L861Q) (Homo sapiens, UniProt P00533, L861Q); test: KinaseSeeker competition binding assay
T1 construct: made in house; host or cells: cell-free system (rabbit reticulocyte lysate)
T1 sequence (P00533 25-1210 L861Q): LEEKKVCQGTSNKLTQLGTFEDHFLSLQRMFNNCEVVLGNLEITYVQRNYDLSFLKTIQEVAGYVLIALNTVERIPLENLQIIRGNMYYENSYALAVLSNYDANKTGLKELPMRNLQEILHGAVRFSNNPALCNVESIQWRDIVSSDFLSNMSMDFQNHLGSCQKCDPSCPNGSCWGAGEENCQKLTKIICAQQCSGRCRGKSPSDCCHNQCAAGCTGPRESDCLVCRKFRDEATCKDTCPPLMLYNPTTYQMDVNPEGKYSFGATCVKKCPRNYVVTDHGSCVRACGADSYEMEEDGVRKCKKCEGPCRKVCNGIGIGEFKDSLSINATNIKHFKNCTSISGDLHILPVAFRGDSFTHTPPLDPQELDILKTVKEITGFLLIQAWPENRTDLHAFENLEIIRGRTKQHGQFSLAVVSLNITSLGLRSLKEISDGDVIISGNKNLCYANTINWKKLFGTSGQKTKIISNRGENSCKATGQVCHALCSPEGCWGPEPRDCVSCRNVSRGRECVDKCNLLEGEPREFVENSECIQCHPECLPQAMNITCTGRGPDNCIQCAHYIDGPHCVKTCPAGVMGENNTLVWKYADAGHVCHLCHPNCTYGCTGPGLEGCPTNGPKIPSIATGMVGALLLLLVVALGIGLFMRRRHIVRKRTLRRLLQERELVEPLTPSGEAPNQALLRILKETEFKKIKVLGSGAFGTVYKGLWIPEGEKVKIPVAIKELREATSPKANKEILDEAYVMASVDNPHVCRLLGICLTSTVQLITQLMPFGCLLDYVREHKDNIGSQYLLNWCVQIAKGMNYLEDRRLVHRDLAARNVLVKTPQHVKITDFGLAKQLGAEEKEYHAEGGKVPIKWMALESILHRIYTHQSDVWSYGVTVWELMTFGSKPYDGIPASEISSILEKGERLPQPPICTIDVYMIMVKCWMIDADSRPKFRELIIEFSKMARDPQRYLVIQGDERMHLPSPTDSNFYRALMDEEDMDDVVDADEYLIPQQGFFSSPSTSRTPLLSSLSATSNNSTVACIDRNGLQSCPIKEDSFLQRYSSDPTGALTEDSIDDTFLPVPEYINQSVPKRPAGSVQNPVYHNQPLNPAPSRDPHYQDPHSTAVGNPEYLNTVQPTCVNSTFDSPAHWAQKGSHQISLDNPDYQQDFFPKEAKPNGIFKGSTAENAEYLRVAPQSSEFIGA
Experimental: Compound Reno647 was profiled against the following panel of kinases at 2 μM using the KinaseSeeker™ assay: ABL1, AKT1, AKT2, AKT3, ALK, AURKA, AXL, BRAF, BTK, CDK2, CDK5, CDK7, CDK8, CSF1R, DDR1, EGFR del L747-P753 InsS, EGFR (L861Q), EGFR (G719S), EGFR, EGFR (L858R), EPHA2, EPHB2, FGFR3, FLT1/VEGFR1, FLT2/FGFR1, FLT3, FLT4/VEGFR3, GSK-3a, HER2, IGF1R, INSR, KIT, LIMK1, MET, MLK2/MAP3K10, RPS6KA5/MSK1, MUSK, p38a/MAPK12, PDGFRA, PDGFRB, PDK1, RET, RIPK2, RPS6KA1/RSK1, SRC, TEC, TESK1, TRKB, VEGFR2, and YES 1.
KinaseSeeker is a homogeneous competition binding assay where the displacement of an active site dependent probe by an inhibitor is measured by a change in luminescence signal (see FIG. 7). Luminescence readout translates into a highly sensitive and robust assay with low background and minimal interference from test compounds.
(Jester, Cox et al. 2010; Jester, Gaj et al. 2012): 10 mM stock of compound Reno647 was diluted in DMSO to a concentration of 50 μM. Prior to initiating a profiling campaign, the compound was evaluated for false positive against split-luciferase. The compound was then screened in duplicate against each of the kinases. For kinase assays, each Cfluc-Kinase was translated along with Fos-Nfluc using a cell-free system (rabbit reticulocyte lysate) at 30° C. for 90 min. A 24 μL aliquot of this lysate containing either 1 μL of DMSO (for no-inhibitor control) or compound solution in DMSO (2 LM final concentration) was incubated for 30 minutes at room temperature followed by 1 hour in the presence of a kinase specific probe. A 80 μL of luciferin assay reagent was added to each solution and luminescence was immediately measured on a luminometer.
The % Inhibition and % Activity Remaining were calculated using the following equations:
% inhibition=(ALUcontrol−ALUsample)×100
% activity=100−% inhibition.
The same assay design was used as described in example section 3.1.
10 mM stock solutions of compound Reno647 was serially diluted in DMSO to make assay stocks. Prior to initiating IC50 determination, the test compound was evaluated for false positive against split-luciferase.
Reno647 was screened against 6 kinases (EGFR, EGFR del L747 P753 InsS, EGFR G719S, EGFR L858R, EGFR L861Q, RIPK2) at a minimum of 8 different concentrations in duplicate. For kinase assays, a 24 μL aliquot of lysate containing Cfluc-kinase and Fos-Nfluc was incubated for 30 minutes at room temperature with either 1 μL of DMSO (for no-inhibitor control) or compound solution in DMSO, followed by 1 hour incubation in the presence of a kinase specific probe. A 80 μL of luciferin assay reagent was added to each solution and luminescence was immediately measured on a luminometer.
% inhibition=(ALUcontrol−ALUsample)/ALcontrol×100
The % Activity was plotted against compound concentration and the IC50 was determined for each compound using an 8-point curve.

HCC827 TR cells = test: Combination analysis of cell growth inhibition (SRB, CalcuSyn); assay type: cell-based, human
Experimental: As described in Example 2.1. Two cell lines, HCC827-P and HCC827-TR (Tarceva-resistant HCC727 cells-an EGFRi resistant cell line with MET amplification) (Wang, Pursell et al. 2013) were used in the combination study. Exponentially growing HC[…] and HCC827-TR cells were seeded into 96-wells dishes at density of 3,000 cells per well. Twenty-four hours later, the cells were exposed concurrently to serial dilution of Reno647 or Carboplatin or Camptothecin alone or in combination at a ratio of 1:50 with Carboplatin or at ratio 1:1 with Camptothecin for 3 days. Reno647 were concurrently and sequentially with paclitaxel (Taxol) at ratio of 200:1 for 6 days. For sequential exposure, the cells were treated with Reno647 for 3 days, after removal of the drug containing medium, the cells were treated with Taxol for additional 3 days, or the cells were treated by Taxol first followed by the treatment with Reno 647. After incubation for 6 days, the cell growth was measured by SRB as described previously in Example 2.1 section, and the percentages of inhibition (1-T/C) % were calculated, and data were analyzed by a PC program, CalcuSyn, Biosoft (edited by T.-C. Chou, Memorial Sloan-Kettering Cancer Center, New York, and M. P. Hayball, at Cambridge, UK, 1996). The computer-calculated combination index (CI) was used to judge the outcomes of a combination: […] It has long been accepted that chemotherapy provided some benefit for patients with non-small-cell lung cancer (NSCLC) in terms of quality of life and symptomatology as well as modest improvements in survival. […] Cell growth was determined by SRB as described above. […] Cell growth was determined by SRB as described above. […] (FIG. 5 C&D, CIs were well below 1 at effective concentration), particularly at higher concentration where Reno647 achieves its effective inhibition on […]. […] However, induction of EGFR activation mediated by Taxol may compromise activity of EGFR inhibitors. To examine our hypothesis, Taxol was combined with Reno647 in three different sequential exposures: • Combination 1: exposure of HC[…] or TR cells to Reno647+Taxol simultaneously for 6 days. • Combination 2: exposure of the cells to Reno647 first for 3 days followed by treatment with Taxol for an additional 3 days, or • Combination 3: exposure of the cells to Taxol first for 3 days followed by treatment with Reno647 for an additional 3 days. Exposure of the cells to either Reno647 or Taxol served as controls. After exposure, cell growth was determined by SRB and analyzed as described in above section.

[1] = HCC827TR, ratio 200:1, 3 days + 3 days

In the case of `C#Cc1cccc(Nc2ncnc3cc(OCCOC)c(NC(=O)c4ccc(F)c([N+](=O)[O-])c4)cc23)c1` [Reno647, 4-Fluoro-N-[4-(3-ethynyl-phenylamino)-7-(2-methoxy-ethoxy)-quinazolin-6-yl]-3-nitro-benzamide], the Phospho-Akt level (HCC827 P cells) is reported as “significantly reduced”, the “level of pEGFRTyr845” value (HCC827 P cells) is reported as “significantly decreased” and the “level of pEGFRTyr1068” value (HCC827 P cells) is reported as “significantly decreased”. For the same compound, the “level of pERK1/2 (Ras/Raf/MEK pathway)” value (HCC827 P cells) was “significant decrease”, the p27 level (HCC827 P cells) was “induction” and the “pp-70-6S activity (p70-S6 activation)” value (HCC827 P cells) was “significant decreases”. For the same compound, the “total MEK1/2 protein level” value (HCC827 P cells) was “no changes”, the remaining binding at 2 µM (EGFR(L861Q); 2 μM, EGFR(L861Q)) was 20.7% and the IC50 (EGFR(L861Q); 8-point curve, duplicate) was 574 nM. For the same compound, the “combination index (CI), Reno647 with Camptothecin” value (HCC827 TR cells; HCC827 TR, ratio 1:1, concurrent, 3 days, at effective concentration) was “below 1”, the “combination index (CI), Reno647 with Carboplatin” value (HCC827 TR cells; HCC827 TR, ratio 1:50, concurrent, 6 days, at effective concentrations) was “below 1” and the “combination index (CI), Reno647 first followed by Taxol” value (HCC827 TR cells; [1]) was over 1. For the same compound, the “combination index (CI), Taxol first followed by Reno647” value (HCC827 TR cells; [1]) was under 1 and the “combination index (CI), Reno647 and Taxol concurrently” value (HCC827 TR cells; HCC827TR, ratio 200:1, 6 days) was under 1.
